{"source": "patent US9211278B2", "about": "“Composition containing arylnaphthalene lignan derivative for preventing and/or treating dementia” (KOREA INSTITUTE OF SCIENCE AND TECHNOLOGY, priority 2012, dated 2015)", "key": {"[1]": {"tested_on": "HeLa cell line transfected with the amyloid precursor protein (APP)", "assay": "MTT cell proliferation assay (cell death)", "assay_type": "cell-based", "conditions": "5 μg/ml, 8 hours", "procedure": "To test the effect of Justicidin A and 5-methoxyJusticidin A on cell death, the MTT Cell Proliferation assay method (ATCC catalog #30-1010K, Manassas, USA) was used. Specifically, the HeLa cell line transfected with the amyloid precursor protein (APP) driven from human was treated with various concentrations of Justicidin A (S62-C1) or 5-methoxyJusticitdin A (S62-C2) for 8 hours, and the viable cells were quantified to show the result in FIG. 3."}, "[2]": {"tested_on": "alpha-secretase product (sAPPα)", "assay": "Alpha-secretase product (sAPPα) production, Western blotting", "assay_type": "cell-based, human", "conditions": "8 hours, concentrations of FIG. 5", "procedure": "The test result confirmed that Justicidin A (C1) obtained in Example 2 and 5-methoxyJusticidin A increased alpha-secretase product (sAPPα). Specifically, the produced amount of sAPPα was measured by treating the cultured cell line (the HeLa cell line transfected with the amyloid precursor protein (APP) driven from human) with Justicidin A (S62-C1) or 5-methoxyJusticitdin A (S62-C2) at a concentration of FIG. 5, culturing it for 8 hours, and measuring the produced amount of sAPPα according to the Western blotting. The negative control was the group with no treatment of Justicidin A or 5-methoxyJusticidin A."}, "[3]": {"tested_on": "APP targeted to plasma membrane (maAPP)", "assay": "Targeting of mature APP (maAPP) to plasma membrane, biotinylation method", "assay_type": "cell-based, human", "procedure": "It is reported that APP made in ER, then passed through Golgi, targeted to plasma membrane, in the maAPP form. APP hydrolysis was performed by alpha-secretase, sAPPα secretion was increased, and Aβ secretion, made by beta secretase, was decreased. Relative amount of maAPP increased by Justicidin A, amount of APP targeted to plasma membrane was measured by biotinylation method.\nHela cell line, transfected with the amyloid precursor protein (APP), was incubated in DMEM (Cat. #11995, Gibco, USA). The cell line was received from Prof. Tae-Wan Kim at Department of Pathology, Columbia University Medical Center, New York, N.Y. 10032, USA. 1.5×10^6 cells seeded in 60 mm dish, incubated for 24 hours. […] Avidin (S 1638, Sigma), specifically interacted to biotin, added to pellet (30 ul, 4° C., incubated for 30 min) for precipitation biotinylated protein, and precipitated protein was performed electrophoresis, then measured change of APP protein, exposed protein of outside of cell, by western blotting with APP antibody (1:2000 diluted, A8717, Sigma).\nWhen Justicidin A was treated for 1 hour, the biotinylated APP was increased as the concentration increased 0.03, 0.1, and 0.25 uM, the and the molecular weight was the same as O-glycosylated APP (maAPP) (FIG. 7a). The result of western blotting was measured by band intensity to show the result in FIG. 7b. […]"}, "O-glycosylated maAPP": {"tested_on": "O-glycosylated maAPP", "assay": "APP O-glycosylation, O-glycosylation antibody then APP Western blotting", "assay_type": "cell-based, human", "conditions": "1, 5, 10 uM, 4 hrs", "procedure": "According to the same method as above, HeLa cell line was treated with 1, 5, 10 uM of Justicidin A for 4 hrs. Then, the 5 ul of O-glycosylation antibody (#MMS-248R, Covance) was added to 500 ug of the separated plasma membrane protein, and performed by electrophoresis and the western blotting using the APP antibody (1:2000 diluted, A8717, Sigma)."}, "Aβ42": {"biological_target": "T1, Aβ42 (Homo sapiens, UniProt P05067)", "T1 construct": "Aβ42 of 42 amino acids", "T1 sequence (P05067 672-713 limits assumed)": "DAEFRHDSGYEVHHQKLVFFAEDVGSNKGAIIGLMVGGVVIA", "assay": "Aβ fibril formation, Thioflavin T (ThT) fluorescence assay", "assay_type": "biochemical", "procedure": "Fibril formation by concentrated Aβ is Alzheimer's representative symptom and has been focused on recently. The concentrated Aβ was measured by Thioflavin T (ThT) fluorescence assay, as chemical process was artificially generated.\nFor formation of Aβ fibril, Aβ42 was melt in 1,1,1,3,3,3-hexafluoro-2-propanol (HFIP) up to 1 mg/ml, then injected to 96-well plate, the concentration of Aβ42 was 10 uM each well, HFIP was evaporated shortly before the beginning of the experiment. Various concentrations of Justicidin A and a certain amount of 5 uM ThT were added, and Fluorescence intensity was measured at various times by Tecan infinite M1000 microplate reader (Tecan, Switzerland)."}, "male ICR mouse": {"tested_on": "male ICR mouse", "assay": "Novel object recognition test, scopolamine-impaired memory model", "assay_type": "in vivo", "conditions": "oral, 10 mg/kg and 20 mg/kg; compared with 2 mg/kg Donepezil", "procedure": "The male ICR mouse was 5 to 6-week age (25˜30 g of body weight) (Orientbio Inc., Seougnam, Republic of Korea), and was raised with solid feed and tap water for 1 week before being used for test. For 3 days before the test, each mouse to get adjusted to Arena (grey mat acryl material, 50 cm×50 cm×60 cm) went freely into the Arena for 10 minutes per a day.\nAt a first day, the normal control group and the group administered by the scopolamine were fed with 5% (v/v) DMSO-saline, the test group was orally administered by 1, 5, 10 and 20 mg/kg/10 ml of Justicidin A (C1) in 5% DMSO-Saline, and the comparative group was administered with 2 mg/kg/10 ml of Donepezil (brand name: Aricept, Eisai) being commercially available as a drug for treating an dementia of the Alzheimer's type. After 30 minutes, the groups were intraperitoneally injected by scopolamine (Sigma-Aldrich Chemical Co., St Louis, USA) at 1 mg/kg/10 ml. […]\nAt the second day, the mice were dropped into the Arena without treatment of additional drug and scopolamine. […] Entire test was automatically recorded and analyzed with Noldus Ethovision 7.0 program (Noldus Information Technology, USA). The time when the mice sought the object in 3 minutes after dropping two objects at second day of test were measured and calculated as Memory Index (%, ratio of time for Novel object recognition to entire time for recognition). […]"}}, "data": [{"smiles": "COc1cc2c(OC)c3c(c(-c4ccc5c(c4)OCO5)c2cc1OC)C(=O)OC3", "note": "[Justicidin A]", "values": [{"measurement": "cell lines died", "setting": "[1]", "result": "≤ 20", "unit": "%"}, {"measurement": "formation of alpha-secretase product (sAPPα)", "setting": "[2]", "result": "activated the formation of alpha-secretase product (sAPPα)"}, {"measurement": "amount of maAPP in the cell membrane, by treatment time", "setting": "[3]; 0.1 uM, 10 min to 240 min", "result": "the amount of maAPP in the cell membrane as the treatment time increased"}, {"measurement": "amount of maAPP (biotinylated APP) in plasma membrane, by concentration", "setting": "[3]; 0.03, 0.1, and 0.25 uM, 1 hour", "result": "amount of maAPP increased in plasma membrane in a concentration-dependent manner"}, {"measurement": "O-glycosylated maAPP", "setting": "O-glycosylated maAPP", "result": "the O-glycosylated maAPP was increased"}, {"measurement": "inhibition at 5 µM", "setting": "Aβ42; 5 uM, read-out: inhibition of formation of Aβ fibril compared to the control group", "result": 52, "unit": "%"}, {"measurement": "inhibition of formation of Aβ fibril", "setting": "Aβ42; various concentrations, up to 36 hrs", "result": "inhibited the formation of Aβ fibril in a concentration-dependent manner"}, {"measurement": "memory and learning ability (Memory Index)", "setting": "male ICR mouse", "result": "showed high memory and learning ability"}]}]}
